This is an account of results in ChEMBL document CHEMBL3046495, “CoMFA, ADVANCE CoMFA AND CoMSIA STUDIES ON THE OXADIAZOLE SUBSTITUTED -ISOPROPOXY PHENYLPROPIONIC ACIDS FOR PPAR AGONISTIC ACTIVITY” (Med Chem Res, 2004).

The assay concerns the target T1, Peroxisome proliferator-activated receptor alpha (Homo sapiens, UniProt Q07869).
T1 sequence (Q07869 whole entry): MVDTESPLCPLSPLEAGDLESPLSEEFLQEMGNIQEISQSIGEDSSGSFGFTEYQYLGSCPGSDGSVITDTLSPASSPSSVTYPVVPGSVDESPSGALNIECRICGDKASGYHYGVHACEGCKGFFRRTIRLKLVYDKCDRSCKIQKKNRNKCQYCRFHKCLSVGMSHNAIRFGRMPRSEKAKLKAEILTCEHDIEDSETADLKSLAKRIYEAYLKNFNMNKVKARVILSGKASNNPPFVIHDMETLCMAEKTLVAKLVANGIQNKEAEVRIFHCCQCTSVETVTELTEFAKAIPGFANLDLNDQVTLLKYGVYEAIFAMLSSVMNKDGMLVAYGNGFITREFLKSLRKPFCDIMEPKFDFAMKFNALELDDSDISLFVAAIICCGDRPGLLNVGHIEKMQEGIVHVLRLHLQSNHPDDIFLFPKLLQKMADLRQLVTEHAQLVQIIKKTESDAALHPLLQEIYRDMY
Nature of the assay: Agonist activity at PPARalpha (unknown origin).

`CC(C)OC(Cc1ccc(OCCc2noc(C3CCCCC3)n2)cc1)C(=O)O` (configuration not stated) gave an EC50 of 240 nM.

Consider `CC(C)Cc1ccc(-c2nc(COc3ccc(CC(OC(C)C)C(=O)O)cc3)no2)cc1` (configuration not stated), for which a half-maximal effect (EC50) was put at 40 nM.
